From US20100317850A1 (priority 2008, published 2010)

system: Aβ42 production; test: Quantification of Aβ peptide in culture of neurons from rat fetus brain (Aβ ELISA); type: cell-based; conditions: Neuron, 72 h; rat primary neuronal culture (cerebral cortex, embryonic day 18 Wistar rats); medium collected three days after addition of the compound; Aβx-42 ELISA; read-out: Aβ42 production reducing effect IC50
Protocol: Quantification of Aβ Peptide in Culture of Neurons from Rat Fetus Brain
(1) Rat Primary Neuronal Culture
Primary neuronal cultures were prepared from the cerebral cortex of embryonic day 18 Wistar rats (Charles River Japan, Yokohama, Japan). Specifically, the embryos were aseptically removed from pregnant rats under ether anesthesia. The brain was isolated from the embryo and immersed in an ice-cold L-15 medium (such as Invitrogen Corp. Cat #11415-064, Carlsbad, Calif., USA, or SIGMA L1518). The cerebral cortex was collected from the isolated brain under a stereoscopic microscope. The cerebral cortex fragments collected were enzymatically treated in an enzyme solution containing 0.25% trypsin (Invitrogen Corp. Cat #15050-065, Carlsbad, Calif., USA) and 0.01% DNase (Sigma D5025, St. Louis, Mo., USA) at 37° C. for 30 minutes to disperse the cells. Here, the enzymatic reaction was stopped by adding inactivated horse serum to the solution. The enzymatically treated solution was centrifuged at 1,500 rpm for five minutes to remove the supernatant. 5 to 10 mL of a medium was added to the resulting cell mass. Neurobasal medium (Invitrogen Corp. Cat #21103-049, Carlsbad, Calif., USA) supplemented with 2% B27 supplement (Invitrogen Corp. Cat #17504-044, Carlsbad, Calif., USA), 25 μM 2-mercaptoethanol (2-ME, WAKO Cat #139-06861, Osaka, Japan), 0.5 mM L-glutamine (Invitrogen Corp. Cat #25030-081, Carlsbad, Calif., USA), and Antibiotics-Antimycotics (Invitrogen Corp. Cat #15240-062, Carlsbad, Calif., USA) was used as the medium (Neurobasal/B27/2-ME). However, the above Neurobasal medium not supplemented with 2-ME (Neurobasal/B27) was used for the assay. The cells were redispersed by mild pipetting of the cell mass to which the medium was added. The cell dispersion was filtered through a 40-μm nylon mesh (Cell Strainer, Cat #35-2340, Becton Dickinson Labware, Franklin Lakes, N.J., USA) to remove the remaining cell mass, and thus a neuronal cell suspension was obtained. The neuronal cell suspension was diluted with the medium and then plated in a volume of 100 μL/well at an initial cell density of 5×10^5 cells/cm^2 in a 96-well polystyrene culture plate pre-coated with poly-L or D-lysine (Falcon Cat #35-3075, Becton Dickinson Labware, Franklin Lakes, N.J., USA coated with poly-L-lysine using the method shown below, or BIOCOAT™ cell environments Poly-D-lysine cell ware 96-well plate, Cat #35-6461, Becton Dickinson Labware, Franklin Lakes, N.J., USA). Poly-L-lysine coating was carried out as follows. 100 μg/mL of a poly-L-lysine (SIGMA P2636, St. Louis, Mo., USA) solution was aseptically prepared with a 0.15 M borate buffer (pH 8.5). […] of the solution was added to the 96-well polystyrene culture plate and incubated at room temperature for one or more hours or at 4° C. overnight or longer. Thereafter, the coated 96-well polystyrene culture plate was washed with sterile water four or more times, and then dried or rinsed with, for example, sterile PBS or medium, and used for cell plating. The plated cells were cultured in the culture plate at 37° C. in 5% CO2-95% air for one day. Then, the total amount of the medium was replaced with a fresh Neurobasal™/B27/2-ME medium, and then the cells were cultured for further three days.
The drug was added to the culture plate on Day 4 of culture as follows. The total amount of the medium was removed from the wells, and 180 μL/well of Neurobasal medium not containing 2-ME and containing 2% B-27 (Neurobasal/B27) was added thereto. A solution of the test compound in dimethyl sulfoxide (hereinafter abbreviated as DMSO) was diluted with Neurobasal/B27 to a concentration 10-fold higher than the final concentration. 20 μL/well of the dilution was added to and sufficiently mixed with the medium. The final DMSO concentration was 1% or less. Only DMSO was added to the control group.
The cells were cultured for three days after addition of the compound, and the total amount of the medium was collected. […]

Q: For `COC[C@H]1OC[C@]2(c3cc(NC(=O)c4cnc(C(F)F)cn4)ccc3F)N=C(N)SC[C@H]12` [Example 68, N-[3-((4aS,5S,7aS)-2-amino-5-methoxymethyl-4a,5-dihydro-4H-furo[3,4-d][1,3]thiazin-7a-yl)-4-fluorophenyl]-5-difluoromethylpyrazine-2-carboxamide], which IC50 is on record?
A: Its IC50 is 6 nM.

Q: How did the IC50 turn out when `NC1=N[C@@]2(c3cc(NC(=O)c4ccc(C(F)F)cn4)ccc3F)CCC[C@H]2CS1` (single isomer, unassigned) [Example 141, N-[3-((4aR*,7aS*)-2-amino-4a,5,6,7-tetrahydro-4H-cyclopenta[d][1,3]thiazin-7a-yl)-4-fluorophenyl]-5-difluoromethylpyridine-2-carboxamide] was run?
A: Its IC50 is 16 nM.

Q: For `NC1=N[C@@]2(c3cc(NC(=O)c4cnccn4)ccc3F)CCCC[C@H]2CS1` [Example 224], which IC50 is on record?
A: Its IC50 is 271 nM.

Q: With `COC[C@H]1C[C@]2(c3cc(NC(=O)c4ccc(C#N)cn4)ccc3F)N=C(N)SC[C@@H]2CO1` [Example 39, N-[3-((4aS,7R,8aS)-2-amino-7-methoxymethyl-4a,5,7,8-tetrahydro-4H-6-oxa-3-thia-1-azanaphthalen-8a-yl)-4-fluorophenyl]-5-cyanopyridine-2-carboxamide] as the compound, how does the IC50 read?
A: The IC50 was 7 nM.

Q: For `N#Cc1ccc(C(=O)Nc2cc(Cl)cc([C@]34CCC[C@H]3CSC(N)=N4)c2)nc1` (racemic) [Example 240, (±)-N-[3-((4aR*,7aS*)-2-amino-4a,5,6,7-tetrahydro-4H-cyclopenta[d][1,3]thiazin-7a-yl)-5-chlorophenyl]-5-cyanopyridine-2-carboxamide], which IC50 is on record?
A: Its IC50 is 39 nM.

Q: `N#Cc1ccc(C(=O)Nc2ccc(F)c([C@]34C[C@H](CF)OC[C@H]3CSC(N)=N4)c2)nc1` [Example 42, N-[3-((4aS,7R,8aS)-2-amino-7-fluoromethyl-4a,5,7,8-tetrahydro-4H-6-oxa-3-thia-1-azanaphthalen-8a-yl)-4-fluorophenyl]-5-cyanopyridine-2-carboxamide] was tested. Which IC50 did it give?
A: Its IC50 is 4 nM.

Q: `NC1=N[C@@]2(c3cc(NC(=O)c4ccc(Cl)cn4)ccc3F)CCO[C@H](CF)[C@H]2CS1` (relative stereo) [Example 148, N-[3-((4aS*,5S*,8aS*)-2-amino-5-fluoromethyl-4a,5,7,8-tetrahydro-4H-6-oxa-3-thia-1-azanaphthalen-8a-yl)-4-fluorophenyl]-5-chloropyridine-2-carboxamide] was tested. Which IC50 did it give?
A: Its IC50 is 9 nM.

Q: For `NC1=N[C@@]2(c3cc(NC(=O)c4ccccn4)ccc3F)CCCC[C@H]2CS1` [Example 255], which IC50 is on record?
A: Its IC50 is 158 nM.

Q: Which IC50 does the source give for `CNC(=O)c1ccc(C(=O)Nc2ccc(F)c([C@]34CCC[C@H]3CSC(N)=N4)c2)nc1` [Example 127] here?
A: The IC50 was 214 nM.

Q: Which IC50 does the source give for `CO[C@H]1CC[C@]2(c3cc(NC(=O)c4ccc(C#N)cn4)ccc3F)N=C(N)SC[C@H]12` (relative stereo) [Example 63, N-[3-((4aS*,5S*,7aS*)-2-amino-5-methoxy-4a,5,6,7-tetrahydro-4H-cyclopenta[d][1,3]thiazin-7a-yl)-4-fluorophenyl]-5-cyanopyridine-2-carboxamide] here?
A: The IC50 was 11 nM.

Q: How did the IC50 turn out when `CO[C@H]1CC[C@]2(c3cc(NC(=O)c4cnc(OC(F)F)cn4)ccc3F)N=C(N)SC[C@H]12` (relative stereo) [Example 64, N-[3-((4aS*,5S*,7aS*)-2-amino-5-methoxy-4a,5,6,7-tetrahydro-4H-cyclopenta[d][1,3]thiazin-7a-yl)-4-fluorophenyl]-5-difluoromethoxypyrazine-2-carboxamide] was run?
A: Its IC50 is 8 nM.

Q: How did the IC50 turn out when `COc1cnc(C(=O)Nc2ccc(F)c([C@]34CCC[C@H]3CSC(N)=N4)c2)cn1` (single isomer, unassigned) [Example 177, N-[3-((4aR*,7aS*)-2-amino-4a,5,6,7-tetrahydro-4H-cyclopenta[d][1,3]thiazin-7a-yl)-4-fluorophenyl]-5-methoxypyrazine-2-carboxamide] was run?
A: The IC50 was 18 nM.

Q: `CC[C@H]1OC[C@]2(c3cc(NC(=O)c4cnc(OC(F)F)cn4)ccc3F)N=C(N)SC[C@H]12` (relative stereo) [Example 50, N-[3-((4aS*,5R*,7aS*)-2-amino-5-ethyl-4a,5-dihydro-4H-furo[3,4-d][1,3]thiazin-7a-yl)-4-fluorophenyl]-5-difluoromethoxypyrazine-2-carboxamide] was tested. Which IC50 did it give?
A: The IC50 was 0.9 nM.

Q: `NC1=N[C@@]2(c3cc(NC(=O)c4cnc(OCF)cn4)ccc3F)CCOC[C@H]2CS1` (relative stereo) [Example 80, N-[3-((4aS*,8aS*)-2-amino-4a,5,7,8-tetrahydro-4H-6-oxa-3-thia-1-azanaphthalen-8a-yl)-4-fluorophenyl]-5-fluoromethoxypyrazine-2-carboxamide] was tested. Which IC50 did it give?
A: The IC50 was 8 nM.

Q: `NC1=N[C@@]2(c3cc(NC(=O)c4ccc(C(F)(F)F)cn4)ccc3F)CCC[C@H]2CS1` (single isomer, unassigned) [Example 169, N-[3-((4aR*,7aS*)-2-amino-4a,5,6,7-tetrahydro-4H-cyclopenta[d][1,3]thiazin-7a-yl)-4-fluorophenyl]-5-trifluoromethylpyridine-2-carboxamide] was tested. Which IC50 did it give?
A: The IC50 was 27 nM.

Q: Which IC50 does the source give for `NC1=N[C@@]2(c3cc(NC(=O)c4ccc(Cl)cn4)ccc3OC(F)(F)F)CCOC[C@H]2CS1` (racemic) [Example 149] here?
A: Its IC50 is 414 nM.

Q: `Cc1cccnc1C(=O)Nc1ccc(F)c([C@]23CCC[C@H]2CSC(N)=N3)c1` [Example 236] was tested. Which IC50 did it give?
A: The IC50 was 59 nM.

Q: With `NC1=N[C@@]2(c3cccc(-c4cccnc4F)c3)CN(c3cccc(F)n3)C[C@H]2CS1` [Example 88] as the compound, how does the IC50 read?
A: Its IC50 is 75 nM.

Q: For `NC1=N[C@@]2(c3cc(NC(=O)c4cnc(C(F)F)cn4)ccc3F)CCOC[C@H]2CS1` (relative stereo) [Example 79, N-[3-((4aS*,8aS*)-2-amino-4a,5,7,8-tetrahydro-4H-6-oxa-3-thia-1-azanaphthalen-8a-yl)-4-fluorophenyl]-5-difluoromethylpyrazine-2-carboxamide], which IC50 is on record?
A: The IC50 was 28 nM.

Q: Which IC50 does the source give for `CO[C@@H]1C[C@H]2CSC(N)=N[C@@]2(c2cc(NC(=O)c3ccc(OC(F)F)cn3)ccc2F)C1` (relative stereo) [Example 100, (+)-N-[3-((4aR*,6R*,7aS*)-2-amino-6-methoxy-4a,5,6,7-tetrahydro-4H-cyclopenta[d][1,3]thiazin-7a-yl)-4-fluorophenyl]-5-difluoromethoxypyridine-2-carb oxamide] here?
A: Its IC50 is 2 nM.

Q: With `NC1=N[C@@]2(c3cc(NC(=O)c4ccc(Br)cn4)ccc3F)CCC[C@H]2CS1` (single isomer, unassigned) [Example 172, N-[3-((4aR*,7aS*)-2-amino-4a,5,6,7-tetrahydro-4H-cyclopenta[d][1,3]thiazin-7a-yl)-4-fluorophenyl]-5-bromopyridine-2-carboxamide] as the compound, how does the IC50 read?
A: The IC50 was 7 nM.

Q: `NC1=N[C@@]2(c3cc(NC(=O)c4ccc(C(F)(F)F)cn4)ccc3F)CO[C@H](CF)[C@H]2CS1` [Example 70, N-[3-((4aS,5S,7aS)-2-amino-5-fluoromethyl-4a,5-dihydro-4H-furo[3,4-d][1,3]thiazin-7a-yl)-4-fluorophenyl]-5-trifluoromethylpyridine-2-carboxamide] was tested. Which IC50 did it give?
A: The IC50 was 2 nM.

same assay, conditions: rat primary neuronal culture (cerebral cortex, embryonic day 18 Wistar rats); medium collected three days after addition of the compound; Aβx-42 ELISA; read-out: Aβ42 production reducing effect IC50

Q: “N-[3-((4aR*,9aS*)-2- amino-4a,5,6,7,8,9-hexahydro-4H- cyclohepta[d][1,3]thiaziin-9a-yl)-4- fluorophenyl]-6-chloropyridine-2- carboxamide [Example 248]” was tested. Which IC50 did it give?
A: The IC50 was 16 nM.
